Source: publication PMC8948292, “Combining PEGylated mito-atovaquone with MCT and Krebs cycle redox inhibitors as a potential strategy to abrogate tumor cell proliferation” (Scientific Reports, 2022)
Read-outs that look alike come from different tables or passages of the source.

How the values were obtained:
[1] = target: mitochondrial complex I (MiaPaCa-2 cells) (Homo sapiens, UniProt O75251+O75306+P03886); assay: Complex I-dependent oxygen consumption in permeabilized cells, Seahorse XF-96; type: cell-based; settings: 24 h, with Mito-PEG5-ATO
Description: Mitochondrial oxygen consumption was measured using the Seahorse XF-96 Extracellular Flux Analyzer (Agilent, North Billerica, MA)[3],[33],[67],[68]. To determine the intact cell mitochondrial function of MiaPaCa-2 cells in response to Mito-PEG-ATO analogs, we used the bioenergetic function assay previously described[2],[3]. […] From these measurements, indices of mitochondrial function were determined as previously described[2],[3]. For mitochondrial complex activities assays, after cells were treated with Mito-PEG-ATO analogs for 24 h, the OCR-based assessment of mitochondrial complex activities was carried out on acutely permeabilized cells in the presence of different mitochondrial substrates, i.e., pyruvate/malate for complex I and duroquinol for complex III[3],[32],[34],[69]. Rotenone, malonate, and antimycin A (Sigma-Aldrich, St. Louis, MO) were used as specific inhibitors of mitochondrial complexes I, II, and III, respectively. Briefly, cells that were intact after treatments were immediately permeabilized using the Seahorse XF Plasma Membrane Permeabilizer (Agilent). The mitochondrial complex I-induced OCR was assayed in mannitol and sucrose buffer[69] containing 10 mM pyruvate and 1.5 mM malate (substrates for complex I) and 10 mM malonate (which inhibits complex II activities). […] The IC50 values were determined as previously reported.

[2] = system: MiaPaCa-2 cells; assay: Cell proliferation (cell confluence), IncuCyte Live-Cell Analysis System; type: cell-based, human; settings: for IC50: Homo sapiens; for Cell confluence (% of control): control ~90% confluence
How it was run: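 MiaPaCa-2 cells in DMEM with 10% FBS, plated at 1,000 cells/well in triplicate and adhered overnight, then treated with Mito-PEG-ATO analogs. Confluence imaged label-free over several days, increase in percent confluence serving as proliferation surrogate.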

[3] = system: U87MG cells; assay: as above; type: cell-based, human; settings: Mito-PEG5-ATO 0.15 µM, AZD-3965 600 µM
Description: (§1) The following cell lines were obtained from the American Type Culture Collection (Manassas, VA), where they were regularly authenticated: MiaPaCa-2 (ATCC Cat# CRL-1420, human pancreatic cancer cells), U87MG (ATCC Cat# HTB-14, human brain cancer cells), A549 (ATCC Cat# CCL-185, lung cancer cells), and HCT-116 (ATCC Cat# CCL-247, colon cancer cells). All cell lines were grown at 37 °C in 5% carbon dioxide. MiaPaCa-2 cells were maintained in Dulbecco's Modified Eagle Medium (Thermo Fisher Scientific, Waltham, MA; Cat# 11965) supplemented with 10% fetal bovine serum. U87MG, A549, and HCT-116 cells were maintained in RPMI 1640 medium (Thermo Fisher Scientific, Cat# 11875), supplemented with 10% fetal bovine serum. All cells were stored in liquid nitrogen and used within 20 passages after thawing.
The IncuCyte Live-Cell Analysis System was used to monitor cell proliferation[3],[33],[67]. As shown in previous publications[3],[67], this imaging system is probe-free and noninvasive, and enables continuous monitoring of cell confluence over several days. […] Cells were then treated with Mito-PEG-ATO analogs, and the cell confluency was recorded over several days in the IncuCyte Live-Cell Analysis System.
Figure S4. […] (a) Effects of Mito-PEG-ATO analogs on the proliferation of U87MG cells were monitored in the IncuCyte Live-Cell Analysis System. […]

[4] = system: MiaPaCa-2 cells; assay: Cell death by SYTOX Green staining, IncuCyte; settings: Mito-PEG5-ATO 0.04 µM, AZD-3965 200 µM, 72 h
[5] = system: mitochondrial respiration (OCR) in intact MiaPaCa-2 cells; assay: Intact cell mitochondrial respiration (basal OCR), Seahorse XF-96; type: cell-based, human
How it was run: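 MiaPaCa-2 cells were treated 24 h with Mito-PEG-ATO analogs, and OCR was read on a Seahorse XF-96; basal respiration was taken in intact cells. For complex I, permeabilized cells received 10 mM pyruvate, 1.5 mM malate and 10 mM malonate; for complex III, 0.5 mM duroquinol, 1 µM rotenone and 10 mM malonate, both in mannitol/sucrose buffer. IC50 values were derived from the OCR data.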

[6] = system: HCT-116 cells; assay: Cell proliferation (cell confluence), IncuCyte Live-Cell Analysis System; type: cell-based; settings: Homo sapiens, HCT-116, read-out: IC50, inhibition of HCT-116 cell proliferation
Description: as §1
(§2) The IncuCyte Live-Cell Analysis System was used to monitor cell proliferation[3],[33],[67]. As shown in previous publications[3],[67], this imaging system is probe-free and noninvasive, and enables continuous monitoring of cell confluence over several days. The increase in the percentage of cell confluence was used as a surrogate marker of cell proliferation. In a 96-well plate, cells were plated at 1,000 cells per well in triplicates and left to adhere overnight. Cells were then treated with Mito-PEG-ATO analogs, and the cell confluency was recorded over several days in the IncuCyte Live-Cell Analysis System.
(§3) Figure S7. Effects of Mito-PEG-ATO analogs on the proliferation of human lung cancer (A549) cells and human colon cancer (HCT-116) cells. (A) The effects of Mito-PEG5-ATO and ATO on the proliferation of A549 (left) or HCT-116 (right) cells were monitored in the IncuCyte Live-Cell Analysis system. The IncuCyte analyzer provides real-time updates on cell confluence, based on segmentation of high definition-phase contrast images. Representative cell images were shown as a segmentation mask illustrated in brown when control cells reached 90% confluence (vertical solid black line). (B) The IC50 values for A549 (left) or HCT-116 (right) cells were determined at the point at which control cells reached ~90% confluence (vertical solid black line). Relative cell confluence (control is taken as 100%) is plotted against concentration. Dashed lines represent the fitting curves used to determine the IC50 values as indicated. Data shown are the mean±SD.

[7] = system: A549 cells; assay: as above; type: cell-based; settings: Homo sapiens, A549, read-out: IC50, inhibition of A549 cell proliferation
Description: as §1, §2, §3

mitochondrial complex I (MiaPaCa-2 cells), sequence (O75306 34-463): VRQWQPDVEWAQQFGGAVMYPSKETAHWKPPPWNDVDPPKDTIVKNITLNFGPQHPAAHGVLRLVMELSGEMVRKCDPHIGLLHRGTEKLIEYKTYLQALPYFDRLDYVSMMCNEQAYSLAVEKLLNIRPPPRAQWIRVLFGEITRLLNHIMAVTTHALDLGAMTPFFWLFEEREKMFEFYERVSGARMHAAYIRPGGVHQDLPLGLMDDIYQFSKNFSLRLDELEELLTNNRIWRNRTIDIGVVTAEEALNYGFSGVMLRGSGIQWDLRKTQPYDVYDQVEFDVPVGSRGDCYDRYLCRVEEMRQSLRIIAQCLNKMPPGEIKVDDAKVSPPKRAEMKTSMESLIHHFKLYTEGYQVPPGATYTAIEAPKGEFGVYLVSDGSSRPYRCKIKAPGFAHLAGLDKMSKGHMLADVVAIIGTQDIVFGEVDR
mitochondrial complex I (MiaPaCa-2 cells), sequence (O75251 39-213): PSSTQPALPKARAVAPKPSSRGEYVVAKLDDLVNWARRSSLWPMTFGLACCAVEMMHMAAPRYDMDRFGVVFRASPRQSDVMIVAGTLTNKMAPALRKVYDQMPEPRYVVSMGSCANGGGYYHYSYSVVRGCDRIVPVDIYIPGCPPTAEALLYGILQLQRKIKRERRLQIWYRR
mitochondrial complex I (MiaPaCa-2 cells), sequence (P03886 whole entry): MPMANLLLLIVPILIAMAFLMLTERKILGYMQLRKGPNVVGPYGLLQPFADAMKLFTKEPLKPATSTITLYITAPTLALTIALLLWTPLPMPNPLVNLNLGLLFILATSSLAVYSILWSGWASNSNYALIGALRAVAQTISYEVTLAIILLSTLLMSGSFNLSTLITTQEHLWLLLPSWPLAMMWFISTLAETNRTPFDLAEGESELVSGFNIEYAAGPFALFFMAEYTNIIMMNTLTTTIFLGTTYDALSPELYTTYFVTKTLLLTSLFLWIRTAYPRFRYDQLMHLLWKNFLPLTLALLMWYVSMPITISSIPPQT

Question: Which results are given for `Cc1[nH]nc(C(F)(F)F)c1Cc1sc2c(c1C(=O)N1C[C@](C)(O)CO1)c(=O)n(C)c(=O)n2C(C)C` [AZD-3965]?
Answer: Effect on the decrease in complex I-induced oxygen consumption induced by Mito-PEG5-ATO [1]: Neither AZD-3965 nor V-9302 significantly affected; IC50 ([2]; MIA PaCa-2, read-out: IC50 (cell proliferation) without Mito-PEG5-ATO): 278 µM; Inhibition of cell proliferation in combination with Mito-PEG5-ATO (combination index) ([2]; MiaPaCa-2 cells, combined with Mito-PEG5-ATO): synergistic; % changes of IC50 with vs without Mito-PEG5-ATO ([2]; MiaPaCa-2 cells, heat map Fig. 7d): 52.5%; Inhibition of cell proliferation in combination with Mito-PEG5-ATO [3]: Synergistic inhibition

Question: Which results are given for `O=C1C(OCCOCCOCCOCCOCC[P+](c2ccccc2)(c2ccccc2)c2ccccc2)=C([C@H]2CC[C@H](c3ccc(Cl)cc3)CC2)C(=O)c2ccccc21.[Br-]` [Mito-PEG5-ATO, [14-((3-(trans-4-(4-chlorophenyl)cyclohexyl)-1,4-dioxo-1,4-dihydronaphthalen-2-yl)oxy)-3,6,9,12-tetraoxatetradecyl]triphenylphosphonium bromide]?
Answer: Cell death / cell toxicity (SYTOX Green counts) [4]: similarly low SYTOX Green counts; OCR (pmol/min/µg protein) ([5]; 0.003 µM, 24 h treatment, intact MiaPaCa-2 cells, baseline OCR, mean, n=4): 13.36 pmol/min/µg protein; OCR (basal, intact cell mitochondrial respiration) ([5]; 0.01 µM, 24 h treatment, intact MiaPaCa-2 cells, mean, n=4): 12.51 pmol/min/µg protein; OCR (basal, intact cell mitochondrial respiration) ([5]; 0.03 µM, 24 h treatment, intact MiaPaCa-2 cells, mean, n=4): 9.91 pmol/min/µg protein; OCR (basal, intact cell mitochondrial respiration) ([5]; 0.05 µM, 24 h treatment, intact MiaPaCa-2 cells, mean, n=4): 9.30 pmol/min/µg protein; OCR (basal, intact cell mitochondrial respiration) ([5]; 0.075 µM, 24 h treatment, intact MiaPaCa-2 cells, mean, n=4): 8.05 pmol/min/µg protein; OCR (basal, intact cell mitochondrial respiration) ([5]; 0.1 µM, 24 h treatment, intact MiaPaCa-2 cells, mean, n=4): 5.43 pmol/min/µg protein; OCR (basal, intact cell mitochondrial respiration) ([5]; 0.3 µM, 24 h treatment, intact MiaPaCa-2 cells, mean, n=4): 0.36 pmol/min/µg protein; OCR (basal, intact cell mitochondrial respiration) ([5]; 0.5 µM, 24 h treatment, intact MiaPaCa-2 cells, mean, n=4): 1.83 pmol/min/µg protein; OCR (basal, intact cell mitochondrial respiration) ([5]; 1 µM, 24 h treatment, intact MiaPaCa-2 cells, mean, n=4): 1.40 pmol/min/µg protein; OCR (basal, intact cell mitochondrial respiration) ([5]; 3 µM, 24 h treatment, intact MiaPaCa-2 cells, mean, n=4): 0.84 pmol/min/µg protein; OCR (basal, intact cell mitochondrial respiration) ([5]; 10 µM, 24 h treatment, intact MiaPaCa-2 cells, mean, n=4): 0.55 pmol/min/µg protein; IC50 ([5]; Homo sapiens, MIA PaCa-2, 24 h, read-out: IC50, inhibition of basal OCR in intact cells): 57 nM; IC50 ([2]; MIA PaCa-2, read-out: IC50, antiproliferative): 0.038 µM; Cell confluence (% of control) ([2]; MiaPaCa-2 cells, 0.003 µM): 94.98 % of control; Cell confluence (% of control) ([2]; MiaPaCa-2 cells, 0.01 µM): 93.81 % of control; Cell confluence (% of control) ([2]; MiaPaCa-2 cells, 0.03 µM): 74.87 % of control; Cell confluence (% of control) ([2]; MiaPaCa-2 cells, 0.05 µM): 41.88 % of control; Cell confluence (% of control) ([2]; MiaPaCa-2 cells, 0.1 µM): 7.64 % of control; Cell confluence (% of control) ([2]; MiaPaCa-2 cells, 0.2 µM): 4.52 % of control; Cell confluence (% of control) ([2]; MiaPaCa-2 cells, 0.3 µM): 4.07 % of control; Cell confluence (% of control) ([2]; MiaPaCa-2 cells, 0.5 µM): 3.75 % of control; Cell confluence (% of control) ([2]; MiaPaCa-2 cells, 1 µM): 3.53 % of control; Cell confluence (% of control) ([2]; MiaPaCa-2 cells, 3 µM): 2.64 % of control; Cell confluence (% of control) ([2]; MiaPaCa-2 cells, 10 µM): 2.40 % of control; IC50 [6]: 140 nM; IC50 [7]: 110 nM
